Several values for one entry are separate records, joined by “and”; a condition that tells them apart may be missing. Equal values may be shown once. Where a name gives a salt, the structure may show the parent alone. Read-outs that look alike come from different tables or passages of the source.
What was measured:
[1] = tested on: PC-3 (deleted p53); assay: Cell growth assay (WST-8); type: cell-based; settings: read-out: IC50 PC-3 (deleted p53)
[2] = tested on: HCT-116 (p53 wild-type); assay: Cell growth assay (WST-8); type: cell-based, human
[3] = tested on: LNCAP (p53 wild-type); assay: Cell growth assay (WST-8); type: cell-based, human
[4] = tested on: RS4; 11 (p53 wt); assay: cells; settings: Homo sapiens, RS4-11, 96 h, read-out: RS4, 11 (p53 wt) IC50 (μM)
[5] = tested on: SJSA-1 (p53 wild-type); assay: Cell growth assay (WST-8); type: cell-based
[6] = tested on: HCT-116 (p53—/—); assay: Cell growth assay (WST-8); type: cell-based
[7] = tested on: prostate cancer cell line 22Rv1; assay: Growth inhibition assay (Celltiter-Glo), 22Rv1; type: cell-based; settings: Homo sapiens, 22Rv1, 96 h, read-out: IC50 growth inhibition
[8] = target: recombinant human His-tagged MDM2 protein (residues 1-118) (Homo sapiens (Human), UniProt Q00987); assay: Fluorescence-polarization MDM2 binding assay (Example 2); settings: Table 2A; no unit in the cell (μM unless otherwise indicated)
[9] = Homo sapiens, HCT-116, 96 h, read-out: IC50 HCT-116 (p53—/—)
[10] = Homo sapiens, HCT-116, 96 h, read-out: IC50 HCT-116 (p53 wild-type)
[11] = Homo sapiens, LNCaP, 96 h, read-out: IC50 LNCAP (p53 wild-type)
[12] = Homo sapiens, SJSA-1, 96 h, read-out: IC50 SJSA-1 (p53 wild-type)
[13] = Homo sapiens, LNCaP; read-out: IC50 LNCAP (p53 wild-type)
[14] = Homo sapiens, SJSA-1; read-out: IC50 SJSA-1 (p53 wild-type)

Chain of recombinant human His-tagged MDM2 protein (residues 1-118) (Q00987 1-118): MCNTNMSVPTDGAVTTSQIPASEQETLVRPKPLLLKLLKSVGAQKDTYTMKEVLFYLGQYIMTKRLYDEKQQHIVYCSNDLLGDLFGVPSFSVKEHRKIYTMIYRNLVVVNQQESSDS

Q: What does the source list for `CC(C)(C)C[C@@H]1N[C@@H](C(=O)NC2CCC(O)CC2)[C@H](c2cccc(Cl)c2F)[C@]12C(=O)Nc1cc(Cl)ccc12` (stereo partly drawn) [MI-77301 (TFA salt)]?
A: IC50 ([1]; Four day treatment): 13000 ± 3000 nM; IC50 ([2]; read-out: IC50 HCT-116 (p53 wild-type); Four day treatment): 48 ± 14 nM; IC50 ([3]; read-out: IC50 LNCAP (p53 wild-type); Four day treatment): 86 ± 16 nM; IC50 ([4]; Four day treatment): 0.059 ± 0.025 µM; IC50 ([5]; read-out: IC50 SJSA-1 (p53 wild-type); Four day treatment): 83 nM and 75 nM

Q: With `CC(C)(C)C[C@@H]1N[C@@H](C(=O)N[C@H]2C[C@@](C)(O)C2)[C@H](c2cccc(Cl)c2F)[C@]12C(=O)Nc1cc(Cl)ccc12` [MI-519-6401] as the compound, how does the IC50 [6, 9] read?
A: Its IC50 is 12200 nM.

Q: And the IC50 ([1]; 96 h)?
A: The IC50 was 10500 nM.

Q: And the IC50 [2, 10]?
A: The IC50 was 102 nM.

Q: What about the IC50 [7] of the same compound?
A: Its IC50 is 100 to 500 nM.

Q: What about the IC50 [3, 11] of the same compound?
A: Its IC50 is 330 nM.

Q: And the IC50 [4]?
A: The IC50 was 0.13 ± 0.02 µM.

Q: What about the IC50 [5, 12] of the same compound?
A: Its IC50 is 400 nM.

Q: `CCN1[C@@H](CC(C)(C)C)[C@@]2(C(=O)Nc3cc(Cl)ccc32)[C@@H](c2cccc(Cl)c2F)[C@@H]1C(=O)N[C@H]1C[C@@](C)(O)C1` [C29701] was tested. Which IC50 [8] did it give?
A: The IC50 was under 0.1 µM.

Q: `CC(C)(C)C[C@@H]1N[C@@H](C(=O)NC2CCC(C)(O)CC2)[C@H](c2cccc(Cl)c2F)[C@]12C(=O)Nc1cc(Cl)ccc12` (stereo partly drawn) was tested. Which IC50 ([6]; Homo sapiens, HCT-116, read-out: IC50 HCT-116 (p53—/—)) did it give?
A: The IC50 was 10600 nM.

Q: What about the IC50 [1] of the same compound?
A: Its IC50 is 11100 nM.

Q: And the IC50 ([2]; Homo sapiens, HCT-116, read-out: IC50 HCT-116 (p53 wild-type))?
A: The IC50 was 100 nM.

Q: And the IC50 ([3]; Homo sapiens, LNCaP, read-out: IC50 LNCAP (p53 wild-type))?
A: The IC50 was 200 nM.

Q: What about the IC50 ([5]; Homo sapiens, SJSA-1, read-out: IC50 SJSA-1 (p53 wild-type)) of the same compound?
A: The IC50 was 100 nM.

Q: Which results are given for `CC(C)(C)C[C@@H]1N[C@@H](C(=O)N[C@H]2C[C@@](C)(O)C2)[C@H](c2cccc(Cl)c2F)[C@]12C(=O)Nc1c2ccc(Cl)c1F`?
A: IC50 [1]: 10100 nM; IC50 [3, 13]: 300 nM; IC50 [8]: < 0.1 µM; IC50 [5, 14]: 200 nM

Q: With `CC(C)(C)C[C@H]1N[C@@H](C(=O)N[C@H]2C[C@@](C)(O)C2)[C@H](c2cccc(Cl)c2F)[C@@]12C(=O)Nc1cc(Cl)ccc12` [MI-519-64] as the compound, how does the IC50 [6, 9] read?
A: Its IC50 is 13700 nM.

Q: What about the IC50 ([1]; 96 h) of the same compound?
A: Its IC50 is 6100 nM.

Q: What about the IC50 [2, 10] of the same compound?
A: The IC50 was 180 nM.

Q: And the IC50 [3, 11]?
A: The IC50 was 500 nM.

Q: And the IC50 [5, 12]?
A: Its IC50 is 270 nM.

Q: Which results are given for `CC(C)(C)C[C@H]1N[C@@H](C(=O)N[C@H]2C[C@@](C)(O)C2)[C@H](c2cccc(Cl)c2)[C@@]12C(=O)Nc1cc(F)c(F)cc12` [C035]?
A: IC50 ([6]; Homo sapiens, HCT-116; read-out: IC50 HCT-116 (p53—/—)): > 10000 nM; IC50 [1]: > 10000 nM; IC50 ([2]; Homo sapiens, HCT-116; read-out: IC50 HCT-116 (p53 wild-type)): < 5000 nM; IC50 [3, 13]: < 5000 nM; IC50 [8]: < 3 µM; IC50 [5, 14]: < 5000 nM

Source: patent US8680132B2, “Spiro-oxindole MDM2 antagonists” (priority 2010, dated 2014)
